Laboratory results published in patent publication US20120065205A1, “PYRAZINE CARBOXAMIDE OREXIN RECEPTOR ANTAGONISTS” (priority 2009, published 2012).

Each compound was assayed against T1, OX2R (Homo sapiens, UniProt O43614) (assay: radioligand binding assay, membranes from CHO cells expressing OX2 receptor). Details: CHO cell membranes.
T1 construct: expressed in transfected cells; host or cells: CHO cells (membranes)
T1 sequence (O43614 1-444): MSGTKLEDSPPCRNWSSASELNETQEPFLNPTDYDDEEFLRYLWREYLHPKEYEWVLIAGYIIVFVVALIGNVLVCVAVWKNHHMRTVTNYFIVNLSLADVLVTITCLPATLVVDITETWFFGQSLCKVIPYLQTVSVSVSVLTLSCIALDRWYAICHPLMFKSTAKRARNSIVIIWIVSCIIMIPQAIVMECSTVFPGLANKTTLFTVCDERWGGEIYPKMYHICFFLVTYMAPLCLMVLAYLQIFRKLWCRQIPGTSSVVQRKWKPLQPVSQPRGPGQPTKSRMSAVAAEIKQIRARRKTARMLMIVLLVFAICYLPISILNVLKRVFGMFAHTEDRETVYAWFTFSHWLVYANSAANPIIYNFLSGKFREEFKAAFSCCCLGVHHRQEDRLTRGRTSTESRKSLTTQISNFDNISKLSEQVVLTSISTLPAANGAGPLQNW
Description: The utility of the compounds in accordance with the present invention as orexin receptor OX1R and/or OX2R antagonists may be readily determined without undue experimentation by methodology well known in the art, including the “FLIPR Ca^2+ Flux Assay” (Okumura et al., Biochem. Biophys. Res. Comm. 280:976-981, 2001). In a typical experiment the OX1 and OX2 receptor antagonistic activity of the compounds of the present invention was determined in accordance with the following experimental method. For intracellular calcium measurements, Chinese hamster ovary (CHO) cells expressing the rat orexin-1 receptor or the human orexin-2 receptor, are grown in Iscove's modified DMEM containing 2 mM L-glutamine, […], 1% hypoxanthine-thymidine supplement, 100 U/ml penicillin, 100 ug/ml streptomycin and 10% heat-inactivated fetal calf serum (FCS). The cells are seeded at 20,000 cells/well into Becton-Dickinson black 384-well clear bottom sterile plates coated with poly-D-lysine. All reagents were from GIBCO-Invitrogen Corp. The seeded plates are incubated overnight at 37° C. and 5% CO2. […] Within the Fluorescent Imaging Plate Reader (FLIPR, Molecular Devices), test compounds are added to the plate in a volume of 25 ul, incubated for 5 min and finally 25 ul of agonist is added. Fluorescence is measured for each well at 1 second intervals for 5 minutes and the height of each fluorescence peak is compared to the height of the fluorescence peak induced by 70 pM Ala-6,12 orexin-A with buffer in place of antagonist. […] Alternatively, compound potency can be assessed by a radioligand binding assay (described in Bergman et. al. Bioorg. Med. Chem. Lett. 2008, 18, 1425-1430) in which the inhibition constant (Ki) is determined in membranes prepared from CHO cells expressing either the OX1 or OX2 receptor. The intrinsic orexin receptor antagonist activity of a compound which may be used in the present invention may be determined by these assays.

Row | SMILES | Ki [nM]
1 | COc1ccc(CNC(=O)c2nc(-c3cncc(C)c3)cnc2-c2ccccc2)nc1OC [1-5, N-[(5,6-dimethoxypyridin-2-yl)methyl]-6-(5-methylpyridin-3-yl)-3-phenylpyrazine-2-carboxamide] | 1.4
2 | COc1ccc(CNC(=O)c2nc(-c3cncc(Cl)c3)cnc2-c2ccccc2F)nc1OC [1-9, 6-(5-chloropyridin-3-yl)-N-[(5,6-dimethoxypyridin-2-yl)methyl]-3-(2-fluorophenyl)pyrazine-2-carboxamide] | 3.9
3 | COc1ccc(CNC(=O)c2nc(-c3cc(C)cc(C)c3)cnc2N2CCOCC2)nc1OC [2-5, N-[(5,6-dimethoxypyridin-2-yl)methyl]-6-(3,5-dimethylphenyl)-3-(morpholin-4-yl)pyrazine-2-carboxamide] | 33
